Results from patent US4094908A, “Alpha-substituted benzhydrol derivatives” (Richter Gedeon Vegyeszeti Gyar Rt., priority 1973, dated 1978).

Legend:
[1] = Toxicity: perished animals/tested animals; type: in vivo
Source text: Despite its disadvantageous properties, phenobarbital is widely used in the treatment of neonatal jaundice. In order to enable a better comparison, Table 8 indicates the respective dosages in which phenobarbital causes lethal respiration paralysis, while the compounds according to the invention are completely innocuous.

[2] = test system: hexobarbital oxidase; assay: Enzyme-inducing potency: in vivo hexobarbital oxidase activity (duration of hexobarbital narcosis); design: species or system Female Wistar rats; conditions: 24 hours before hexobarbital
Method: […] 24 and 48 hours after the administration of the active agent, respectively, the animals were narcotized with 40 mg./kg. i.v. dosage of hexobarbital sodium, and the time elapsed until complete wakening was measured (Noordhock, J.: Eur. J. Pharmacol. 3, 242, 1968). The data were recorded, and the mean values, the standard errors, as well as the percentage increase with respect to the controls were calculated for each group. […] The hexobarbital concentration of the plasma, measured on the instant of wakening, was the same for both the treated and the control animals, thus the increase of narcosis period was not due to a certain central nervous interaction (Jori, A., Bianchatti, A., Presentini, P. E.: Biochem. Pharmacol. 19, 2687, 1970).
The enzyme-inducing potency of the new compounds was determined by several methods. One of these methods was the in vivo measurement of hexobarbital oxidase activity.
The decrease of narcosis period is due to the fact that the new compounds according to the invention accelerate the elimination of hexobarbital, a foreign substance, from the body. When administering the compound to be tested in a single dosage and measuring the duration of hexobarbital narcosis 24 hours after the administration, the following results are obtained: […]

[3] = test system: central nervous system; type: in vivo, mice and rats
Source text: The central nervous activities of the compounds according to the invention were examined on mice and rats with the following methods: electroshock (Swinyard, E. A., Brown, W. C., Goodman, L. S.: J. Pharmacol. Exp. Ther. 106, 319, 1952), metrazol spasm (Everett, G. M., Richards, R. K.: J. Pharmacol. Exp. Ther. 81, 402: 1944), thiosemicarbezide spasm (Da Venzo, J. P. Greig, M. E., Cormin, M. A.: Amer. J. Physiol. 201, 833: 1961), strychnine spasm (Kerley, T. L., Richards, A. G., Begley, R. W., Abreu, B. B. Wesver, L. C.: J. Pharmacol. Exp. Ther. 132, 360: 1961), nicotine spasm (Stone, C. A., Mecklenburg, K. L., Torhans, M. L.: Arch. Int. Pharmacodyn. 117, 419: 1958), rotarod test (Kinnard, W. C., Carr, C. J.: J. Pharmacol. Expt. Ther. 121, 3, 54: 1957), physistigmine lethality preventing effect (Nose, T., Kojima, M.: Europ. J. Pharmacol. 10, 83: 1970), yohimbine potentiation effect (Quinton, R. M.: Brit. J. Pharmacol. 21, 51: 1963), and analgesic activity (Bianchi, G., Franceschini, J.: Brit. J. Pharm. Chemother. 9, 280: 1954). As reference substance, phenobarbital was used. […]

[4] = test system: bilirubin elimination; assay: Bilirubin elimination under in vivo conditions; design: species or system rats; conditions: pre-treated rats; 30 mg./kg. free bilirubin i.v.
Method: When examining the bilirubin elimination under in vivo conditions on rats pre-treated with E 15 or phenobarbital, respectively, and challenged intravenously with a dosage of 30 mg./kg. of free bilirubin, the following biological halving periods were determined (Krueger, H., Higginson, J.: Proc. Soc. Exp. Biol. Med. 107, 43, 1961): […]

[5] = neonatal jaundice; in words; cited from earlier work

Compound: CCC1(c2ccccc2)C(=O)NC(=O)NC1=O [Phenobarbital, reference compound]
- Perished animals/tested animals ([1]; 40 mg./kg): 0/10
- Perished animals/tested animals ([1]; 80 mg./kg): 0/10
- Perished animals/tested animals ([1]; 160 mg./kg): 4/10
- Perished animals/tested animals ([1]; 320 mg./kg): 9/10
- Perished animals/tested animals ([1]; 640 mg./kg): 10/10
- Sleeping period ± standard error ([2]; 5 mg./kg. single dosage): 20.1 ± 2.0
- Sleeping period ± standard error ([2]; 10 mg./kg. single dosage): 14.3 ± 1.4
- Sleeping period ± standard error ([2]; 20 mg./kg. single dosage): 14.0 ± 1.3
- Sleeping period ± standard error ([2]; 40 mg./kg. single dosage): 12.5 ± 1.2
- Central nervous effects ([3]; in words, in contrast with phenobarbital): hypnotic and respiration paralyzing effects
- Central nervous activity ([3]; oral 40, 120 and 150 mg./kg., phenobarbital effect even at 40 mg./kg.): strong anticonvulsive muscle-incoordinating and sedative effects
- t1/2 (biological halving period of bilirubin) [4]: 13 min
- Side effects [5]: toxic (sedative and respiration-paralyzing) side effects
